The record followed here is patent US7169932B2 (priority 2001, dated 2007).

The target of one assay is T1, HIV-1 protease (Q7S) (Human immunodeficiency virus type 1 group M subtype B, UniProt P04585, Q495S).
T1 construct: made in house
Description: HIV-1 Protease RET Assay. Format: biochemical. The gist of the method: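 Ki values came from a RET assay on refolded Q7S protease (2 nM active dimer) cleaving RE(EDANS)SQNYPIVQK(DABCYL)R at 5 μM, read at ex 340/em 490 nm. Reactions ran 12 min at 37 C in 0.1M sodium acetate pH 4.8, 1M NaCl, 5 mM DTT, 10% DMSO; curves were fit with the Morrison tight-binding equation.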

The test system of another assay is HIV-1. Description: Cytopathic Effect (CPE) Inhibition Assay (XTT dye reduction). Format: cell-based. How it is done: T-cell lines, CEM-SS, and MT-2, and viruses HIV-1 RF and HIV-1 NL4–3 (pNL4–3) were obtained from the National Institutes of Health (AIDS Research and Reference Reagent Program, Bethesda, Md.).
The ability of compounds to protect cells against HIV infection was measured by the […] dye reduction method, essentially as described (See Pauwels, R. Balzarini, J. Baba, M. Snoeck, R. Schols, D. Herdewijn, P. Desmyter, J. and De Clercq, E. 1988, “Rapid and automated tetrazolium-based colorimetric assay for the detection of anti-HIV compounds,”. J Virol Methods., 20: 309–321 and Weislow, O. S. Kiser, R. Fine, D. L. Bader, J. Shoemaker, R. H. and Boyd, M. R. 1989. “New soluble-formazan assay for HIV-1 cytopathic effects: application to high-flux screening of synthetic and natural products for AIDS-antiviral activity”. J. Natl. Cancer Inst. 81:577–586). Subject cells were infected with test virus at an moi of 0.025 to 0.819 or mock infected with medium only and added at 2×10^4 cells per well into 96 well plates containing half-log dilutions of test compounds. Six days later, 50 μl of XTT (1 mg/ml XTT tetrazolium, […] phenazine methosulfate) was added to the wells and the plate was reincubated for four hours. Viability, as determined by the amount of XTT formazan produced, was quantified spectrophotometrically by absorbance at 450 nm. Data from CPE assays were expressed as the percent of formazan produced in compound-treated cells compared to formazan produced in wells of uninfected, compound-free cells. The fifty percent effective concentration (EC50) was calculated as the concentration of compound that effected an increase in the percentage of formazan production in infected, compound-treated cells to 50% of that produced by uninfected, compound-free cells. The 50% cytotoxicity concentration (CC50) was calculated as the concentration of compound that decreased the percentage of formazan produced in uninfected, compound-treated cells to 50% of that produced in uninfected, compound-free cells. The therapeutic index was calculated by dividing the cytotoxicity (CC50) by the antiviral activity (EC50).
In general terms: Protection from cytopathic effect is a common read-out in antiviral testing.

[1] abbreviates: Ave. Ki (nM), RET assay, Q7S enzyme, pH 4.8, 37 C.
[2] abbreviates: Human immunodeficiency virus 1, 144 h, read-out: Ave CPE EC50 (mM).
The mark [3] stands for this setting: Ki, table of drawn compounds, unit inferred.

Structures are written as SMILES. Like-named read-outs stand apart in the source and are kept apart here. Some results are limits rather than exact numbers.

For orientation: Ki means a measure of affinity in units of concentration, obtained from inhibition or displacement. Read a low Ki as a stronger hold on the target. One may read the EC50 as the midpoint of the concentration-response curve. The molecule `C=C(C)CNC(=O)[C@H]1N(C(=O)[C@@H](O)[C@H](Cc2ccccc2)NC(=O)c2cccc(O)c2C)CSC1(C)C` [Example A28, (R)-3-((2S,3S)-2-Hydroxy-3-{[1-(3-hydroxy-2-methyl-phenyl)-methanoyl]-amino}-4-phenyl-butanoyl)-5,5-dimethyl-thiazolidine-4-carboxylic acid (2-methyl-allyl)-amide] yielded a Ki at HIV-1 protease (Q7S) (setting [1]) of under 0.1 nM. Further, in the assay with HIV-1 (setting [2]), the EC50 came out at 0.041 µM.
On the same counts, the results for `C=CCNC(=O)[C@H]1N(C(=O)[C@@H](O)[C@H](Cc2ccccc2)NC(=O)c2cccc(F)c2C)CSC1(C)C` [Example B33, (R)-3-((2S,3S)-3-{[1-(3-Fluoro-2-methyl-phenyl)-methanoyl]-amino}-2-hydroxy-4-phenyl-butanoyl)-5,5-dimethyl-thiazolidine-4-carboxylic acid allylamide] are 1.2 nM and 1.29 µM.
Taken in the same sequence, the figures for `Cc1c(O)cccc1C(=O)N[C@@H](Cc1ccccc1)[C@H](O)C(=O)N1CSC(C)(C)[C@H]1C(=O)NCc1ccc(S(C)(=O)=O)cc1` [Example A13, 3-[2-Hydroxy-3-(3-hydroxy-2-methyl-benzoylamino)-4-phenyl-butyryl]-5,5-dimethyl-thiazolidine-4-carboxylic acid 4-methanesulfonyl-benzamide] were 44.1 nM and over 1 µM.
As to `Cc1ccccc1CN(CCO)C(=O)[C@H]1N(C(=O)[C@@H](O)[C@H](Cc2ccccc2)NC(=O)c2cccc(O)c2C)CSC1(C)C` [Example A50, (R)-3-((2S,3S)-2-Hydroxy-3-{[1-(3-hydroxy-2-methyl-phenyl)-methanoyl]-amino}-4-phenyl-butanoyl)-5,5-dimethyl-thiazolidine-4-carboxylic acid (2-hydroxy-ethyl)-(2-methyl-benzyl)-amide], the affinity on HIV-1 protease (Q7S) (setting [1]) corresponds to a Ki of 0.26 nM. Moreover, in the assay with HIV-1 (setting [2]), the EC50 came to 0.224 µM.
Taken in the same sequence, the figures for `Cc1ccccc1CNC(=O)C1N(C(=O)[C@@H](O)[C@H](Cc2ccccc2)NC(=O)c2cccnc2C)CSC1(C)C` (stereo partly drawn) [Example B44, N-{(1S,2S)-1-Benzyl-3-[5,5-dimethyl-4-(2-methyl-benzylcarbamoyl)-thiazolidin-3-yl]-2-hydroxy-3-oxo-propyl}-2-methyl-nicotinamide] were 0.76 nM and 0.629 µM.
The molecule `Cc1c(O)cccc1C(=O)N[C@@H](Cc1ccccc1)[C@H](O)C(=O)N1CSC(C)(C)[C@H]1C(=O)NCCC(C)(C)C` returned a Ki at HIV-1 protease (Q7S) (setting [3]) of 4.7 nM. The same molecule yielded a concentration giving a half-maximal response (EC50) in the assay with HIV-1 (Human immunodeficiency virus 1) of 1.06 µM.
The molecule `Cc1ccccc1CNC(=O)[C@H]1N(C(=O)[C@@H](O)[C@H](Cc2ccccc2)NC(=O)c2cccc(O)n2)CSC1(C)C` [Example B48] gave a Ki on HIV-1 protease (Q7S) (setting [1]) of 12 nM. In the assay on HIV-1 (setting [2]), the EC50 is over 3.2 µM.
As to `CCCNC(=O)[C@H]1N(C(=O)[C@@H](O)[C@H](Cc2ccccc2)NC(=O)c2ccccc2C)CSC1(C)C` [Example B30, (R)-3-{(2S,3S)-2-Hydroxy-4-phenyl-3-[(1-o-tolyl-methanoyl)-amino]-butanoyl}-5,5-dimethyl-thiazolidine-4-carboxylic acid propylamide], the Ki at HIV-1 protease (Q7S) (setting [1]) turned out to be 1.1 nM. Further, the concentration giving a half-maximal response (EC50) in the assay on HIV-1 (setting [2]) amounted to 1.23 µM.
On the same counts, the results for `Cc1ccccc1CNC(=O)[C@H]1N(C(=O)[C@@H](O)[C@H](Cc2ccccc2)NC(=O)c2cccn2C)CSC1(C)C` [Example B12, (R)-3-{(2S,3S)-2-Hydroxy-3-[(1-methyl-1H-pyrrole-2-carbonyl)-amino]-4-phenyl-butyryl}-5,5-dimethyl-thiazolidine-4-carboxylic acid 2-methyl-benzylamide] are 0.45 nM and 1.4 µM.
On HIV-1 protease (Q7S) (setting [1]), `Cn1cccc1C(=O)N[C@@H](Cc1ccccc1)[C@H](O)C(=O)N1CSC(C)(C)[C@H]1C(=O)NCc1ccccc1C(F)(F)F` [Example B26, 3-{2-Hydroxy-3-[(1-methyl-1H-pyrrole-2-carbonyl)-amino]-4-phenyl-butyryl}-5,5-dimethyl-thiazolidine-4-carboxylic acid 2-trifluoromethyl-benzylamide] came in with an inhibition constant (Ki) of 2.9 nM. The EC50 in the assay with HIV-1 (setting [2]) is 1.71 µM.
The molecule `Cc1ccccc1CNC(=O)[C@H]1N(C(=O)[C@@H](O)[C@H](Cc2ccccc2)NC(=O)c2cc(Cl)on2)CSC1(C)C` [Example B4, 5-Chloro-isoxazole-3-carboxylic acid {(1S,2S)-1-benzyl-3-[(R)-5,5-dimethyl-4-(2-methyl-benzylcarbamoyl)-thiazolidin-3-yl]-2-hydroxy-3-oxo-propyl}-amide] showed an inhibition constant Ki on HIV-1 protease (Q7S) (setting [1]) of 1.7 nM. Further, in the assay with HIV-1 (setting [2]), the EC50 was determined as 0.551 µM.
Taken in the same sequence, the figures for `Cc1ccccc1CNC(=O)[C@H]1N(C(=O)[C@@H](O)[C@H](Cc2ccccc2)NC(=O)c2cccc(F)c2C)CSC1(C)C` [Example B36, (R)-3-((2S,3S)-3-{[1-(3-Fluoro-2-methyl-phenyl)-methanoyl]-amino}-2-hydroxy-4-phenyl-butanoyl)-5,5-dimethyl-thiazolidine-4-carboxylic acid 2-methyl-benzylamide] were under 0.1 nM and 0.615 µM.
With `Cc1ccccc1CNC(=O)[C@H]1N(C(=O)[C@@H](O)[C@H](Cc2ccccc2)NC(=O)c2c(C)nn(C)c2Cl)CSC1(C)C` [Example B14, 3-{(S)-3-[(5-Chloro-1,3-dimethyl-1H-pyrazole-4-carbonyl)-amino]-2-hydroxy-4-phenyl-butyryl}-5,5-dimethyl-thiazolidine-4-carboxylic acid 2-methyl-benzylamide], at HIV-1 protease (Q7S) (setting [1]), affinity was put at a Ki of 3.7 nM. Further, the EC50 in the assay with HIV-1 (setting [2]) is 3.05 µM.
For `Cc1ccccc1CNC(=O)[C@H]1N(C(=O)[C@@H](O)[C@H](Cc2ccccc2)NC(=O)c2cnc(C(F)(F)F)[nH]c2=O)CSC1(C)C`, the Ki at HIV-1 protease (Q7S) (setting [3]) came out at 1700 nM. Moreover, the EC50 in the assay on HIV-1 (Human immunodeficiency virus 1) was at least 10 µM.
For the molecule `Cc1c(O)cccc1C(=O)N[C@@H](Cc1ccccc1)[C@H](O)C(=O)N1CSC(C)(C)[C@H]1C(=O)NCC(=O)c1ccccc1` [Example A10, (R)-3-((2S,3S)-2-Hydroxy-3-{[1-(3-hydroxy-2-methyl-phenyl)-methanoyl]-amino}-4-phenyl-butanoyl)-5,5-dimethyl-thiazolidine-4-carboxylic acid (2-oxo-2-phenyl-ethyl)-amide], the affinity at HIV-1 protease (Q7S) (setting [1]), expressed as Ki, was 51 nM. For the same molecule, the EC50 with HIV-1 (setting [2]) is over 1 µM.
On the same counts, the results for `Cc1c(O)cccc1C(=O)N[C@@H](Cc1ccccc1)[C@H](O)C(=O)N1CSC(C)(C)[C@H]1C(=O)NC(C)(C)C#N` [Example A41, (R)-3-((2S,3S)-2-Hydroxy-3-{[1-(3-hydroxy-2-methyl-phenyl)-methanoyl]-amino}-4-phenyl-butanoyl)-5,5-dimethyl-thiazolidine-4-carboxylic acid (1-cyano-1,1-dimethyl-methyl)-amide] are 1.6 nM and 0.527 µM.
`Cc1c(O)cccc1C(=O)N[C@@H](Cc1ccccc1)[C@H](O)C(=O)N1CSC(C)(C)[C@H]1C(=O)NCCC(F)(F)F` [Example A45, (R)-3-((2S,3S)-2-Hydroxy-3-{[1-(3-hydroxy-2-methyl-phenyl)-methanoyl]-amino}-4-phenyl-butanoyl)-5,5-dimethyl-thiazolidine-4-carboxylic acid (3,3,3-trifluoro-propyl)-amide] gave a Ki on HIV-1 protease (Q7S) (setting [1]) of 0.51 nM. Also, in the assay on HIV-1 (setting [2]), the EC50 amounted to 0.165 µM.
The molecule `C=CCNC(=O)[C@H]1N(C(=O)[C@@H](O)[C@H](Cc2ccccc2)NC(=O)[C@@H]2CCCO2)CSC1(C)C` showed a Ki on HIV-1 protease (Q7S) (setting [3]) of 17.3 nM. In the assay with HIV-1 (Human immunodeficiency virus 1), this molecule yielded an EC50 of 3.3 µM.
